Measurements as given in patent US7947740B2, “Bimatoprost crystalline form I” (Finetech Pharmaceutical Ltd, priority 2006, dated 2011).

Key:
[1] = Storage stability (retest period) of the crystalline form; type: physicochemical
Procedure: (§1) Stability data supports the retest period of not less than 6 months if bimatoprost crystalline form I is stored in an appropriate container at 2 to 8° C. and at 25° C.

[2] = Thermodynamic stability of the crystalline modifications of bimatoprost; type: physicochemical; conditions: temperature range between −70 and +30° C.
Procedure: as §1
The importance of bimatoprost crystalline form I rests primarily (but not exclusively) in its thermodynamic stability. […] For example, the crystalline form I may be easily prepared by recrystallizing, triturating, or reslurring of crystalline form A.

retest period supported by stability data ([1]; stored in an appropriate container at 2 to 8° C.): not less than 6 months | retest period supported by stability data ([1]; stored in an appropriate container at 25° C.): not less than 6 months | relative stability among crystalline modifications of bimatoprost [2]: most stable crystalline modification
SMILES: CCNC(=O)CCC/C=C\C[C@@H]1[C@@H](/C=C/[C@@H](O)CCc2ccccc2)[C@H](O)C[C@@H]1O [Bimatoprost crystalline form I, (9S,11R,15S)-9,11,15-trihydroxy-17-phenyl-18,19,20-trinor-5Z,13E-prostadienoic acid ethylamide]
